# From patent US11752188B2, “Compositions and methods for nutritional supplements” (DailyColors Health Inc., priority 2020, dated 2023)
# Columns and labels:
# [1] = target: T1, recombinant human CD39 (Homo sapiens, UniProt P49961); assay: CD39 in vitro enzymatic assay (ATP, colorimetric 630 nm); assay type: biochemical;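 note: test compound preincubated 30 min with enzyme, then 30 min reaction with ATP at room temperature, absorbance after detection reagent, 100% activity without compound, 0% without enzyme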
# T1 construct: purchased BPS Bioscience 71284 (enzyme); kit #79278
# T1 sequence (P49961 1-510): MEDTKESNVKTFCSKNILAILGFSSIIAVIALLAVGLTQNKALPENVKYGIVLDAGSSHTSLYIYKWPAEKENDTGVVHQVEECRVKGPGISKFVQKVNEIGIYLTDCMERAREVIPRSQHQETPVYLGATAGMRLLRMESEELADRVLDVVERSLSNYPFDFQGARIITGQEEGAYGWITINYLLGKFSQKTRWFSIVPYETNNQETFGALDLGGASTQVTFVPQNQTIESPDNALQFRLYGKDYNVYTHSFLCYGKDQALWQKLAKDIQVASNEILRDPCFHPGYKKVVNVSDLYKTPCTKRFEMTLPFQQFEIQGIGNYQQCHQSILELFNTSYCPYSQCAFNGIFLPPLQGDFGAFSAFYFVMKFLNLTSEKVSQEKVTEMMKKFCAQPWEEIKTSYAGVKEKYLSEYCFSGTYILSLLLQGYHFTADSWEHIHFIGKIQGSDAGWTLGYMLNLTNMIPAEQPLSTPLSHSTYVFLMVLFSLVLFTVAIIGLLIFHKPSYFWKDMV
# Description: The CD39 enzymatic reactions were conducted in duplicate at room temperature for 30 minutes in a 50 μl mixture containing assay buffer, ATP, CD39 enzymes, and the test compound. Test compounds were preincubated with the enzyme for 30 minutes. Reactions were started by addition of the substrate. The 50 μl reactions were carried out in a 96-well transparent plate. After enzymatic reactions, 100 μl of Colorimetric Detection Reagent was added to the reaction mix. After a 15 minutes incubation, absorbance was measured using a Tecan plate reader at 630 nm.
# [2] = target: T2, recombinant human CD73 (Homo sapiens, UniProt P21589); assay: CD73 in vitro enzymatic assay (colorimetric 630 nm); assay type: biochemical
# T2 construct: purchased BPS Bioscience 71184 (enzyme); kit #72055
# T2 sequence (P21589 27-549): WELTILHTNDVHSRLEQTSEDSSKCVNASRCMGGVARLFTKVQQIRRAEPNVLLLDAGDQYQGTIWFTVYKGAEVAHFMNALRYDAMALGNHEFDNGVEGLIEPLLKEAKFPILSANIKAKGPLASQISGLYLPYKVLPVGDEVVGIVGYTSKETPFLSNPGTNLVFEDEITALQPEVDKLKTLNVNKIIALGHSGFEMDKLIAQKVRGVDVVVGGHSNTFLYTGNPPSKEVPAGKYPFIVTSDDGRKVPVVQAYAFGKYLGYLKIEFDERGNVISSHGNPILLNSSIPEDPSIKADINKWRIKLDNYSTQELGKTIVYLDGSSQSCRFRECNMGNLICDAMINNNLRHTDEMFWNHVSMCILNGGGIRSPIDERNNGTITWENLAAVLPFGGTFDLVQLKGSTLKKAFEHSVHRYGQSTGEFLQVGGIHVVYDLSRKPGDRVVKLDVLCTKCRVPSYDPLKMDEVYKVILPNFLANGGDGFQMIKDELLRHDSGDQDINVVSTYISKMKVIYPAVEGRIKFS
# Excerpt: Here, D5 is the Yellow Blend, D9 is the Purple Blend, D21 is the Green Blend, D13 is the Red Blend, and D31 is CBD. As before, the red blend included Apple Extract, Pomegranate Extract, Tomato Powder, Beet; the green blend included Olive Extract, Rosemary Extract, Green Coffee Bean Extract, Kale; the orange/yellow blend included Onion Extract, Ginger Extract, Grapefruit Extract, Carrot; and the purple/blue blend included Grape, Blueberry Extract, Currant, Elderberry.
# Assay Conditions: In general, all assays points were done by following the CD39 and CD73 Inhibitor Screening Assay Kit protocol (BPS Bioscience, #79278 and 72055, respectively). The CD73 enzymatic reactions were conducted in duplicate at room temperature for 30 minutes in a 50 μl mixture containing assay buffer, […], CD73 enzymes, and the test compound. Test compounds were preincubated with the enzyme for 30 minutes. Reactions were started by addition of the substrate. The 50 μl reactions were carried out in a 96-well transparent plate. After enzymatic reactions, 100 μl of Colorimetric Detection Reagent was added to the reaction mix. After a 15 minutes incubation, absorbance was measured using a Tecan plate reader at 630 nm.
# Data Analysis: Enzyme activity assays were performed in duplicates at each concentration. The Absorbance intensity data were analyzed and compared. In the absence of the compound, the intensity in each data set was defined as 100% (Ce) activity. In the absence of enzyme, the intensity in each data set was defined as 0% (C0) activity.
compound,measurement,setting,value
POM-1,Activity (%) Rep. 1,"[1]; 0.001 μM, TABLE 79",79%
same,Activity (%) Rep. 2,"[1]; 0.001 μM, TABLE 79",78%
same,CD39 Inhibition (%),"[1]; 0.001 μM, TABLE 79",21%
same,Net absorbance Rep. 1,"[1]; 0.001 μM, TABLE 79",0.42
same,Net absorbance Rep. 2,"[1]; 0.001 μM, TABLE 79",0.41
same,Activity (%) Rep. 1,"[1]; 0.001 μM, TABLE 80",99%
same,Activity (%) Rep. 2,"[1]; 0.001 μM, TABLE 80",90%
same,Inhibition (%),"[1]; 0.001 μM, TABLE 80",5%
same,Net absorbance Rep. 1,"[1]; 0.001 μM, TABLE 80",0.281
same,Net absorbance Rep. 2,"[1]; 0.001 μM, TABLE 80",0.254
same,Activity (%) Rep. 1,"[1]; 0.001 μM, TABLE 81",96%
same,Activity (%) Rep. 2,"[1]; 0.001 μM, TABLE 81",92%
same,Inhibition (%),"[1]; 0.001 μM, TABLE 81",6%
same,Net absorbance Rep. 1,"[1]; 0.001 μM, TABLE 81",0.51
same,Net absorbance Rep. 2,"[1]; 0.001 μM, TABLE 81",0.49
same,Activity (%) Rep. 1,"[1]; 0.001 μM, TABLE 83",86%
same,Activity (%) Rep. 2,"[1]; 0.001 μM, TABLE 83",89%
same,Inhibition (%),"[1]; 0.001 μM, TABLE 83",13%
same,Net absorbance Rep. 1,"[1]; 0.001 μM, TABLE 83",0.25
same,Net absorbance Rep. 2,"[1]; 0.001 μM, TABLE 83",0.26
same,Activity (%) Repeat 1,"[1]; 0.001 μM, TABLE 85",85%
same,Activity (%) Repeat 2,"[1]; 0.001 μM, TABLE 85",89%
same,Inhibition (%),"[1]; 0.001 μM, TABLE 85",13%
same,Net Signal (Absorbance) Repeat 1,"[1]; 0.001 μM, TABLE 85",0.27
same,Net Signal (Absorbance) Repeat 2,"[1]; 0.001 μM, TABLE 85",0.29
same,Activity (%) Rep. 1,"[1]; 0.01 μM, TABLE 79",49%
same,Activity (%) Rep. 2,"[1]; 0.01 μM, TABLE 79",56%
same,CD39 Inhibition (%),"[1]; 0.01 μM, TABLE 79",47%
same,Net absorbance Rep. 1,"[1]; 0.01 μM, TABLE 79",0.26
same,Net absorbance Rep. 2,"[1]; 0.01 μM, TABLE 79",0.30
same,Activity (%) Rep. 1,"[1]; 0.01 μM, TABLE 80",54%
same,Activity (%) Rep. 2,"[1]; 0.01 μM, TABLE 80",51%
same,Inhibition (%),"[1]; 0.01 μM, TABLE 80",47%
same,Net absorbance Rep. 1,"[1]; 0.01 μM, TABLE 80",0.154
same,Net absorbance Rep. 2,"[1]; 0.01 μM, TABLE 80",0.145
same,Activity (%) Rep. 1,"[1]; 0.01 μM, TABLE 81",36%
same,Activity (%) Rep. 2,"[1]; 0.01 μM, TABLE 81",37%
same,Inhibition (%),"[1]; 0.01 μM, TABLE 81",64%
same,Net absorbance Rep. 1,"[1]; 0.01 μM, TABLE 81",0.19
same,Net absorbance Rep. 2,"[1]; 0.01 μM, TABLE 81",0.20
same,Activity (%) Rep. 1,"[1]; 0.01 μM, TABLE 83",67%
same,Activity (%) Rep. 2,"[1]; 0.01 μM, TABLE 83",66%
same,Inhibition (%),"[1]; 0.01 μM, TABLE 83",33%
same,Net absorbance Rep. 1,"[1]; 0.01 μM, TABLE 83",0.20
same,Net absorbance Rep. 2,"[1]; 0.01 μM, TABLE 83",0.19
same,Activity (%) Repeat 1,"[1]; 0.01 μM, TABLE 85",65%
same,Activity (%) Repeat 2,"[1]; 0.01 μM, TABLE 85",68%
same,Inhibition (%),"[1]; 0.01 μM, TABLE 85",34%
same,Net Signal (Absorbance) Repeat 1,"[1]; 0.01 μM, TABLE 85",0.21
same,Net Signal (Absorbance) Repeat 2,"[1]; 0.01 μM, TABLE 85",0.22
same,Activity (%) Rep. 1,"[1]; 0.1 μM, TABLE 79",14%
same,Activity (%) Rep. 2,"[1]; 0.1 μM, TABLE 79",19%
same,CD39 Inhibition (%),"[1]; 0.1 μM, TABLE 79",84%
same,Net absorbance Rep. 1,"[1]; 0.1 μM, TABLE 79",0.08
same,Net absorbance Rep. 2,"[1]; 0.1 μM, TABLE 79",0.10
same,Activity (%) Rep. 1,"[1]; 0.1 μM, TABLE 80",26%
same,Activity (%) Rep. 2,"[1]; 0.1 μM, TABLE 80",26%
same,Inhibition (%),"[1]; 0.1 μM, TABLE 80",74%
same,Net absorbance Rep. 1,"[1]; 0.1 μM, TABLE 80",0.073
same,Net absorbance Rep. 2,"[1]; 0.1 μM, TABLE 80",0.073
same,Activity (%) Rep. 1,"[1]; 0.1 μM, TABLE 81",16%
same,Activity (%) Rep. 2,"[1]; 0.1 μM, TABLE 81",10%
same,Inhibition (%),"[1]; 0.1 μM, TABLE 81",87%
same,Net absorbance Rep. 1,"[1]; 0.1 μM, TABLE 81",0.08
same,Net absorbance Rep. 2,"[1]; 0.1 μM, TABLE 81",0.06
same,Activity (%) Rep. 1,"[1]; 0.1 μM, TABLE 83",30%
same,Activity (%) Rep. 2,"[1]; 0.1 μM, TABLE 83",29%
same,Inhibition (%),"[1]; 0.1 μM, TABLE 83",70%
same,Net absorbance Rep. 1,"[1]; 0.1 μM, TABLE 83",0.09
same,Net absorbance Rep. 2,"[1]; 0.1 μM, TABLE 83",0.09
same,Activity (%) Repeat 1,"[1]; 0.1 μM, TABLE 85",39%
same,Activity (%) Repeat 2,"[1]; 0.1 μM, TABLE 85",38%
same,Inhibition (%),"[1]; 0.1 μM, TABLE 85",61%
same,Net Signal (Absorbance) Repeat 1,"[1]; 0.1 μM, TABLE 85",0.13
same,Net Signal (Absorbance) Repeat 2,"[1]; 0.1 μM, TABLE 85",0.13
Nc1ncnc2c1ncn2[C@@H]1O[C@H](COP(=O)(O)CP(=O)(O)O)[C@@H](O)[C@H]1O [AMPCP],Activity (%) Repeat 1,"[2]; 0.1 μM, TABLE 93",81%
same,Activity (%) Repeat 2,"[2]; 0.1 μM, TABLE 93",96%
same,Inhibition (%),"[2]; 0.1 μM, TABLE 93",12%
same,Net Signal (Absorbance) Repeat 1,"[2]; 0.1 μM, TABLE 93",0.14
same,Net Signal (Absorbance) Repeat 2,"[2]; 0.1 μM, TABLE 93",0.17
same,Activity (%) Rep. 1,"[2]; 1 μM, TABLE 90",92%
same,Activity (%) Rep. 2,"[2]; 1 μM, TABLE 90",96%
same,Inhibition (%),"[2]; 1 μM, TABLE 90",6%
same,Net absorbance Rep. 1,"[2]; 1 μM, TABLE 90",0.368
same,Net absorbance Rep. 2,"[2]; 1 μM, TABLE 90",0.383
same,Activity (%) Rep. 1,"[2]; 1 μM, TABLE 91",89%
same,Activity (%) Rep. 2,"[2]; 1 μM, TABLE 91",89%
same,Inhibition (%),"[2]; 1 μM, TABLE 91",11%
same,Net absorbance Rep. 1,"[2]; 1 μM, TABLE 91",0.30
same,Net absorbance Rep. 2,"[2]; 1 μM, TABLE 91",0.30
same,Activity (%) Repeat 1,"[2]; 1 μM, TABLE 93",53%
same,Activity (%) Repeat 2,"[2]; 1 μM, TABLE 93",64%
same,Inhibition (%),"[2]; 1 μM, TABLE 93",41%
same,Net Signal (Absorbance) Repeat 1,"[2]; 1 μM, TABLE 93",0.09
same,Net Signal (Absorbance) Repeat 2,"[2]; 1 μM, TABLE 93",0.11
same,Activity (%) Rep. 1,"[2]; 10 μM, TABLE 90",74%
same,Activity (%) Rep. 2,"[2]; 10 μM, TABLE 90",76%
same,Inhibition (%),"[2]; 10 μM, TABLE 90",25%
same,Net absorbance Rep. 1,"[2]; 10 μM, TABLE 90",0.298
same,Net absorbance Rep. 2,"[2]; 10 μM, TABLE 90",0.306
same,Activity (%) Rep. 1,"[2]; 10 μM, TABLE 91",52%
same,Activity (%) Rep. 2,"[2]; 10 μM, TABLE 91",59%
same,Inhibition (%),"[2]; 10 μM, TABLE 91",45%
same,Net absorbance Rep. 1,"[2]; 10 μM, TABLE 91",0.18
same,Net absorbance Rep. 2,"[2]; 10 μM, TABLE 91",0.20
same,Activity (%) Repeat 1,"[2]; 10 μM, TABLE 93",20%
same,Activity (%) Repeat 2,"[2]; 10 μM, TABLE 93",28%
same,Inhibition (%),"[2]; 10 μM, TABLE 93",76%
same,Net Signal (Absorbance) Repeat 1,"[2]; 10 μM, TABLE 93",0.04
same,Net Signal (Absorbance) Repeat 2,"[2]; 10 μM, TABLE 93",0.05
same,Activity (%) Rep. 1,"[2]; 100 μM, TABLE 90",17%
same,Activity (%) Rep. 2,"[2]; 100 μM, TABLE 90",22%
same,Inhibition (%),"[2]; 100 μM, TABLE 90",80%
same,Net absorbance Rep. 1,"[2]; 100 μM, TABLE 90",0.071
same,Net absorbance Rep. 2,"[2]; 100 μM, TABLE 90",0.089
same,Activity (%) Rep. 1,"[2]; 100 μM, TABLE 91",13%
same,Activity (%) Rep. 2,"[2]; 100 μM, TABLE 91",12%
same,Inhibition (%),"[2]; 100 μM, TABLE 91",88%
same,Net absorbance Rep. 1,"[2]; 100 μM, TABLE 91",0.04
same,Net absorbance Rep. 2,"[2]; 100 μM, TABLE 91",0.04
